PubChem BioAssay AID1963849 (Molecular Pharmacology Branch, DTP, NCI, 2024)

System: 299254-011-R-J1-PDC complex spheroid viability
Assay: Anticancer human tumor 299254-011-R-J1-PDC patient-derived melanoma cell line growth inhibition [POLQ]
Details: for IC50: curve of first compound; for viability, T/C: stronger effect = lower value
In short: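 Three-cell-type spheroids modelling solid tumor plus stroma served as the readout system; POL inhibitors were tested individually and in combination, concentration ranges set by clinical Cmax where known.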

[1] = second compound 0.0316 µM, first compound 0.00316 µM
[2] = second compound 0.0316 µM, first compound 0.01 µM
[3] = second compound 0.0316 µM, first compound 0.0316 µM
[4] = second compound 0.0316 µM, first compound 0.1 µM
[5] = second compound 0.1 µM, first compound 0.00316 µM
[6] = second compound 0.1 µM, first compound 0.01 µM
[7] = second compound 0.1 µM, first compound 0.0316 µM
[8] = second compound 0.1 µM, first compound 0.1 µM
[9] = second compound 0.316 µM, first compound 0.00316 µM
[10] = second compound 0.316 µM, first compound 0.01 µM
[11] = second compound 0.316 µM, first compound 0.0316 µM
[12] = second compound 0.316 µM, first compound 0.1 µM
[13] = second compound 1 µM, first compound 0.00316 µM
[14] = second compound 1 µM, first compound 0.01 µM
[15] = second compound 1 µM, first compound 0.0316 µM
[16] = second compound 1 µM, first compound 0.1 µM
[17] = second compound 3.16 µM, first compound 0.00316 µM
[18] = second compound 3.16 µM, first compound 0.01 µM
[19] = second compound 3.16 µM, first compound 0.0316 µM
[20] = second compound 3.16 µM, first compound 0.1 µM
[21] = second compound 10 µM, first compound 0.00316 µM
[22] = second compound 10 µM, first compound 0.01 µM
[23] = second compound 10 µM, first compound 0.0316 µM
[24] = second compound 10 µM, first compound 0.1 µM
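Also: spheroids exposed to drugs for one week before measurement.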
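For viability, T/C in this document: percent viability relative to DMSO vehicle control taken as 100%.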

CC(=O)O[C@H]1C(=O)[C@@]2(C)[C@H]([C@H](OC(=O)c3ccccc3)[C@]3(O)C[C@H](OC(=O)[C@H](O)[C@@H](NC(=O)c4ccccc4)c4ccccc4)C(C)=C1C3(C)C)[C@]1(OC(C)=O)CO[C@@H]1C[C@@H]2O + Cc1cccc(N(C)C(=O)C2C(O)CCN2c2nc(C)cc(C(F)(F)F)c2C#N)c1
IC50 (second compound 0.0316 µM): 123 nM
IC50 (second compound 0.1 µM): 91.7 nM
IC50 (second compound 0.316 µM): 69.8 nM
IC50 (second compound 1 µM): 73.4 nM
IC50 (second compound 3.16 µM): 26.8 nM
IC50 (second compound 10 µM): < 9.49 nM
viability, T/C (second compound 0.0316 µM, first compound 0.00949 µM): 99.2%
viability, T/C (second compound 0.0316 µM, first compound 0.03 µM): 79.7%
viability, T/C (second compound 0.0316 µM, first compound 0.0949 µM): 55.1%
viability, T/C (second compound 0.0316 µM, first compound 0.3 µM): 35.7%
viability, T/C (second compound 0.0316 µM, first compound 0.949 µM): 22%
viability, T/C (second compound 0.0316 µM, first compound 3 µM): 24.4%
viability, T/C (second compound 0.1 µM, first compound 0.00949 µM): 84.3%
viability, T/C (second compound 0.1 µM, first compound 0.03 µM): 70.7%
viability, T/C (second compound 0.1 µM, first compound 0.0949 µM): 49.6%
viability, T/C (second compound 0.1 µM, first compound 0.3 µM): 31.3%
viability, T/C (second compound 0.1 µM, first compound 0.949 µM): 23.2%
viability, T/C (second compound 0.1 µM, first compound 3 µM): 20.7%
viability, T/C (second compound 0.316 µM, first compound 0.00949 µM): 90.2%
viability, T/C (second compound 0.316 µM, first compound 0.03 µM): 68.6%
viability, T/C (second compound 0.316 µM, first compound 0.0949 µM): 41.7%
viability, T/C (second compound 0.316 µM, first compound 0.3 µM): 33.1%
viability, T/C (second compound 0.316 µM, first compound 0.949 µM): 29.8%
viability, T/C (second compound 0.316 µM, first compound 3 µM): 23.4%
viability, T/C (second compound 1 µM, first compound 0.00949 µM): 84.9%
viability, T/C (second compound 1 µM, first compound 0.03 µM): 69.2%
viability, T/C (second compound 1 µM, first compound 0.0949 µM): 43.4%
viability, T/C (second compound 1 µM, first compound 0.3 µM): 31.6%
viability, T/C (second compound 1 µM, first compound 0.949 µM): 21.3%
viability, T/C (second compound 1 µM, first compound 3 µM): 23.2%
viability, T/C (second compound 3.16 µM, first compound 0.00949 µM): 68.5%
viability, T/C (second compound 3.16 µM, first compound 0.03 µM): 48%
viability, T/C (second compound 3.16 µM, first compound 0.0949 µM): 33.8%
viability, T/C (second compound 3.16 µM, first compound 0.3 µM): 27.5%
viability, T/C (second compound 3.16 µM, first compound 0.949 µM): 21.7%
viability, T/C (second compound 3.16 µM, first compound 3 µM): 21.4%
viability, T/C (second compound 10 µM, first compound 0.00949 µM): 49%
viability, T/C (second compound 10 µM, first compound 0.03 µM): 31.2%
viability, T/C (second compound 10 µM, first compound 0.0949 µM): 20.4%
viability, T/C (second compound 10 µM, first compound 0.3 µM): 23.2%
viability, T/C (second compound 10 µM, first compound 0.949 µM): 22.7%
viability, T/C (second compound 10 µM, first compound 3 µM): 19.6%

CC[C@@]1(O)C(=O)OCc2c1cc1n(c2=O)Cc2cc3c(CN(C)C)c(O)ccc3nc2-1 + COC1C(OC(N)=O)C(O)C(Oc2ccc3c(O)c(NC(=O)c4ccc(O)c(CC=C(C)C)c4)c(=O)oc3c2C)OC1(C)C
IC50 (second compound 0.0316 µM): > 100 nM
IC50 (second compound 0.1 µM): > 100 nM
IC50 (second compound 0.316 µM): > 100 nM
IC50 (second compound 1 µM): > 100 nM
IC50 (second compound 3.16 µM): > 100 nM
IC50 (second compound 10 µM): > 100 nM
viability, T/C (second compound 0.0316 µM, first compound 0.000316 µM): 104%
viability, T/C (second compound 0.0316 µM, first compound 0.001 µM): 95.4%
viability, T/C [1]: 123%
viability, T/C [2]: 101%
viability, T/C [3]: 112%
viability, T/C [4]: 76%
viability, T/C (second compound 0.1 µM, first compound 0.000316 µM): 111%
viability, T/C (second compound 0.1 µM, first compound 0.001 µM): 105%
viability, T/C [5]: 107%
viability, T/C [6]: 110%
viability, T/C [7]: 114%
viability, T/C [8]: 83.5%
viability, T/C (second compound 0.316 µM, first compound 0.000316 µM): 102%
viability, T/C (second compound 0.316 µM, first compound 0.001 µM): 120%
viability, T/C [9]: 103%
viability, T/C [10]: 102%
viability, T/C [11]: 120%
viability, T/C [12]: 74.5%
viability, T/C (second compound 1 µM, first compound 0.000316 µM): 104%
viability, T/C (second compound 1 µM, first compound 0.001 µM): 106%
viability, T/C [13]: 111%
viability, T/C [14]: 110%
viability, T/C [15]: 110%
viability, T/C [16]: 67.6%
viability, T/C (second compound 3.16 µM, first compound 0.000316 µM): 115%
viability, T/C (second compound 3.16 µM, first compound 0.001 µM): 104%
viability, T/C [17]: 93.6%
viability, T/C [18]: 105%
viability, T/C [19]: 105%
viability, T/C [20]: 84.6%
viability, T/C (second compound 10 µM, first compound 0.000316 µM): 112%
viability, T/C (second compound 10 µM, first compound 0.001 µM): 111%
viability, T/C [21]: 112%
viability, T/C [22]: 102%
viability, T/C [23]: 110%
viability, T/C [24]: 87.1%

CCc1c2c(nc3ccc(O)cc13)-c1cc3c(c(=O)n1C2)COC(=O)[C@]3(O)CC + Nc1ccc(C#CCN(C(=O)Cc2ncc(C(F)(F)F)cc2C(F)(F)F)c2ccc(F)cc2)nn1
IC50 (second compound 0.0316 µM): > 1000 nM
IC50 (second compound 0.1 µM): > 1000 nM
IC50 (second compound 0.316 µM): > 1000 nM
IC50 (second compound 1 µM): > 1000 nM
IC50 (second compound 3.16 µM): > 1000 nM
IC50 (second compound 10 µM): > 1000 nM
viability, T/C [1]: 94.8%
viability, T/C [2]: 85.3%
viability, T/C [3]: 81.9%
viability, T/C [4]: 75.5%
viability, T/C (second compound 0.0316 µM, first compound 0.316 µM): 76.8%
viability, T/C (second compound 0.0316 µM, first compound 1 µM): 63.9%
viability, T/C [5]: 89.7%
viability, T/C [6]: 85.5%
viability, T/C [7]: 72.2%
viability, T/C [8]: 77.2%
viability, T/C (second compound 0.1 µM, first compound 0.316 µM): 68.7%
viability, T/C (second compound 0.1 µM, first compound 1 µM): 57.9%
viability, T/C [9]: 108%
viability, T/C [10]: 81.7%
viability, T/C [11]: 69.5%
viability, T/C [12]: 79%
viability, T/C (second compound 0.316 µM, first compound 0.316 µM): 71%
viability, T/C (second compound 0.316 µM, first compound 1 µM): 58.5%
viability, T/C [13]: 111%
viability, T/C [14]: 85.3%
viability, T/C [15]: 73.9%
viability, T/C [16]: 79.5%
viability, T/C (second compound 1 µM, first compound 0.316 µM): 63.6%
viability, T/C (second compound 1 µM, first compound 1 µM): 55.6%
viability, T/C [17]: 97.6%
viability, T/C [18]: 84.1%
viability, T/C [19]: 81.9%
viability, T/C [20]: 72.3%
viability, T/C (second compound 3.16 µM, first compound 0.316 µM): 72.9%
viability, T/C (second compound 3.16 µM, first compound 1 µM): 59.9%
viability, T/C [21]: 96.4%
viability, T/C [22]: 73.2%
viability, T/C [23]: 68.7%
viability, T/C [24]: 71.1%
viability, T/C (second compound 10 µM, first compound 0.316 µM): 61.9%
viability, T/C (second compound 10 µM, first compound 1 µM): 61.5%
